According to patent EP0187057A1, “2-Phenyl-isopropyl-allophanate, preparation and pharmaceutical application” (priority 1984, dated 1986):
Several values for one entry are separate records, joined by “and”; a condition that tells them apart may be missing. Equal values may be shown once.

Key:
[1] = Traction test of Boissier and Simon (agility); assay type: in vivo, souris; conditions: mouse, in vivo, po; dose diminishing initial performance by 50 %; read-out: DA50 agilité
From the text: (§1) On a donc étudié les effets dépresseurs que peuvent exercer des doses croissantes de SCS 289 sur : • - la motricité spontanée de la souris; • - sa curiosité, quantifiée par la méthode de la planche à trous; • - son agilité, évaluée par l'épreuve de la traction de Boissier et Simon; • - sa force musculaire, mesurée par l'épreuve des poids.
(§2) Les essais ont été pratiqués sur des groupes de 10 souris dont les performances motrices ont été mesurées à deux reprises : avant et une heure après traitement par le SCS 289 administré, par voie digestive à des doses allant de 10 à 200 mg/kg, actives vis-à-vis des convulsions pentétrazoliques et des crises psychomotrices. A noter que l'épreuve de la planche à trous utilisée pour chiffrer la curiosité des animaux (décompte du nombre de visites des trous) n'est pratiquée qu'une seule fois, le comportement explorateur des animaux traités étant alors comparé à celui des témoins.
(§3) Les résultats obtenus dans chaque groupe ont permis de calculer la DA50 capable de diminuer de 50 X les performances motrices initiales ou de diminuer de 50% la curiosité des souris traitées par rapport à celle des témoins.
(§4) Les expérimentations comportementales précédemment décrites ont été appliquées à des animaux recevant SCS 35 et SCS 289 aux doses de 10 et 25 mg/kg.

agilité de la souris = assay: Traction test of Boissier and Simon (agility); assay type: in vivo
From the text: as §1, §2, §3, §4

crises psychomotrices = assay: Psychomotor seizures induced by low-frequency transcranial electrical stimulation; assay type: in vivo, souris; conditions: for Pourcentage de souris protégées une heure après traitement: groupes de 20 souris
From the text: (§5) Propriétés anticonvulsivantes : • On a effectué, pour déterminer ces propriétés anticonvulsivantes, des expérimentations sur le SCS 289 en procédant à des essais de protection : • - chez le lapin soumis à une transélectrification cranienne génératrice de crises épileptiformes de type "grand mal" ou recevant une infusion veineuse de pentétrazol provoquant l'apparition de myoclonies palpébrales; • - chez la souris recevant, par voie sous-cutanée des doses croissantes de pentétrazol entraînant convulsions et mort ou soumise à une transélectrification transcranienne à basse fréquence génératrice de crises psychomotrices.
On a également recherché si le SCS 289 était susceptible de protéger la souris contre le choc psychomoteur induit par une stimulation transcranienne à basse fréquence qui provoque, chez l'animal, un bref comportement de désorientation rappelant les attaques psychomotrices de l'homme.
Vis-à-vis des crises psychomotrices provoquées chez la souris par une stimulation électrique transcranienne à basse fréquence, le SCS 35 apparait plus actif que le SCS 289 : […]

curiosité de la souris = assay: Hole-board test (curiosity, exploratory behaviour); assay type: in vivo
From the text: as §1, §2, §3, §4

[2] = Hole-board test (curiosity, exploratory behaviour); assay type: in vivo, souris; conditions: mouse, in vivo, po
From the text: as §1, §2, §3, §4

Narcotic effect = conditions: mouse, in vivo; souris; read-out: DE50 narcotique
Protocol: En ce qui concerne la maniabilité, la comparaison des doses de SCS 289 exerçant, chez la souris, des effets létaux et anticonvulsivants permet de prévoir une marge thérapeutique assez confortable (dans le domaine du "petit mal") : • - DL50 = 2300 + 102 mg/kg; • - DE50 narcotique, comprise entre 1 et 2 g/kg; • - DE50 anticonvulsivante vis-à-vis du ^pentétrazol; • - DE50 anticonvulsivante vis-à-vis des crises psychomotrices.

[3] = Weights test (muscular strength); assay type: in vivo, souris; conditions: mouse, in vivo, po; dose diminishing initial performance by 50 %; read-out: DA50 force musculaire
From the text: as §1, §2, §3, §4

[4] = system: force musculaire de la souris; assay: Weights test (muscular strength); assay type: in vivo
From the text: as §1, §2, §3, §4

[5] = system: motricité spontanée de la souris; assay: Spontaneous motor activity; assay type: in vivo
From the text: as §1, §2, §3, §4

[6] = Spontaneous motor activity; assay type: in vivo, souris; conditions: mouse, in vivo, po; dose diminishing initial performance by 50 %; read-out: DA50 motricité
From the text: as §1, §2, §3, §4

[7] = system: myoclonies palpébrales provoquées par l'infusion veineuse de pentétrazol; assay: Intravenous pentetrazol infusion producing palpebral myoclonus (threshold seizures); assay type: in vivo, lapin; conditions: for Dose moyenne de pentétrazol: controls 23,0; for Quantité de pentétrazol nécessaire à l'apparition des myoclonies palpébrales / Temps d'infusion veineuse nécessaire à l'apparition des myoclonies palpébrales: individual animals; for Temps d'infusion veineuse nécessaire à l'apparition des myoclonies palpébrales: comma separates minutes and seconds
From the text: as §5
Les résultats quant à la protection contre les crises pentétrazoliques liminaires génératrices de myaclonies palpébrales figurent dans les tableaux ci-après.
L'administration préalable de SCS 289 retarde l'apparition des myoclonies palpébrales provoquées par l'infusion veineuse de pentétrazol.
Une expérimentation similaire pratiquée en essais croisés a donné les résultats suivants pour divers anticonvulsivants de référence : […]

[8] = 10 mg/kg voie digestive, one hour after treatment
[9] = lapins ayant reçu 50 mg/kg de SCS 289
[10] = lapins ayant reçu 100 mg/kg de SCS 289

CC(C)OC(=O)N(C(N)=O)c1ccccc1 [SCS 289, phényl-2 allophanate d'isopropyle]
ED50 at 1 h [1]: 42 mg/kg | Propriétés déficitaires motrices sur l'agilité (pourcentage de diminution des scores) (agilité de la souris; [8]): 6,7% | Propriétés déficitaires motrices sur l'agilité (pourcentage de diminution des scores) (agilité de la souris; 25 mg/kg): 20% | Propriétés déficitaires motrices sur l'agilité (pourcentage de diminution des scores) (agilité de la souris; 50 mg/kg): 41,7% | Propriétés déficitaires motrices sur l'agilité (pourcentage de diminution des scores) (agilité de la souris; 75 mg/kg): 77,3% | Propriétés déficitaires motrices sur l'agilité (pourcentage de diminution des scores) (agilité de la souris; 100 mg/kg): 90% | Propriétés déficitaires motrices sur l'agilité (pourcentage de diminution des scores) (agilité de la souris; 150 mg/kg): 100% | Propriétés déficitaires motrices sur l'agilité (pourcentage de diminution des scores) (agilité de la souris; 200 mg/kg): 100% | Pourcentage de souris protégées une heure après traitement (crises psychomotrices; 5 mg/kg voie digestive): 45% | Pourcentage de souris protégées une heure après traitement (crises psychomotrices; 10 mg/kg voie digestive): 50% | Pourcentage de souris protégées une heure après traitement (crises psychomotrices; 25 mg/kg voie digestive): 95% | Pourcentage de souris protégées une heure après traitement (crises psychomotrices; 50 mg/kg voie digestive): 100% | Pourcentage de souris protégées une heure après traitement (crises psychomotrices; 2,5 mg/kg voie digestive): 35% | ED50 (crises psychomotrices; Mus musculus, po, souris, voie digestive, read-out: DE50 capable de protéger 50 % des animaux contre les crises psychomotrices): 4.5 mg/kg | activité par rapport au valproate de sodium (comparaison des DE50) (crises psychomotrices; crises psychomotrices, souris): 26 fois | activité par rapport à la phénacétamide (comparaison des DE50) (crises psychomotrices; crises psychomotrices, souris): trois fois plus actif | DL50/DE50 / Crises psycho-motrices (crises psychomotrices; index thérapeutique absolu, souris): 511 | DE50 psychodépressive / DE50 anticonvulsivante / Crises psycho-motrices (crises psychomotrices; index thérapeutique relatif, psychodépressive = mean of DE50 for agilité, force musculaire, motricité, curiosité): 16 | DE50 capable de protéger 50 % des animaux contre les crises psychomotrices (crises psychomotrices; souris, voie digestive): 4,5 mg/kg and ~5,5 mg/kg | Nb de visites des trous Traités (curiosité de la souris; 10 mg/kg, par souris pendant cinq minutes, témoins 26,5): 27 | Nb de visites des trous Traités (curiosité de la souris; 25 mg/kg, témoins 26,4): 27,4 | Nb de visites des trous Traités (curiosité de la souris; 50 mg/kg, témoins 24,2): 23,6 | Nb de visites des trous Traités (curiosité de la souris; 75 mg/kg, témoins 27): 21,4 | Nb de visites des trous Traités (curiosité de la souris; 100 mg/kg, témoins 25,4): 8,6 | Nb de visites des trous Traités (curiosité de la souris; 150 mg/kg, témoins 24,2): 0 | Nb de visites des trous Traités (curiosité de la souris; 200 mg/kg, témoins 24,2): 0 | DA50 capable de diminuer de 50 % la curiosité de la souris (curiosité de la souris; méthode de Miller et Tainter, 60 min): 82,5 ± 7,6 mg/kg and ~82 mg/kg | ED50 at 1 h ([2]; méthode de Miller et Tainter, read-out: DA50 capable de diminuer de 50 % la curiosité de la souris): 82.5 mg/kg | selectivity ratio ([2]; souris, read-out: DA50 curiosité par rapport aux doses anticonvulsivantes (pentétrazol / crises psychomotrices)): 15 to 18 | ED50 (Narcotic effect): 1000 to 2000 mg/kg | ED50 at 1 h [3]: 63 mg/kg | Propriétés déficitaires motrices sur la force musculaire (pourcentage de diminution des scores) [4, 8]: 3,8% | Propriétés déficitaires motrices sur la force musculaire (pourcentage de diminution des scores) ([4]; 25 mg/kg): 8,3% | Propriétés déficitaires motrices sur la force musculaire (pourcentage de diminution des scores) ([4]; 50 mg/kg): 33% | Propriétés déficitaires motrices sur la force musculaire (pourcentage de diminution des scores) ([4]; 75 mg/kg): 31,9% | Propriétés déficitaires motrices sur la force musculaire (pourcentage de diminution des scores) ([4]; 100 mg/kg): 80,4% | Propriétés déficitaires motrices sur la force musculaire (pourcentage de diminution des scores) ([4]; 150 mg/kg): 100% | Propriétés déficitaires motrices sur la force musculaire (pourcentage de diminution des scores) ([4]; 200 mg/kg): 100% | Propriétés déficitaires motrices sur la motricité (pourcentage de diminution des scores) [5, 8]: 0% | Propriétés déficitaires motrices sur la motricité (pourcentage de diminution des scores) ([5]; 25 mg/kg): 20% | Propriétés déficitaires motrices sur la motricité (pourcentage de diminution des scores) ([5]; 50 mg/kg): 25% | Propriétés déficitaires motrices sur la motricité (pourcentage de diminution des scores) ([5]; 75 mg/kg): 30% | Propriétés déficitaires motrices sur la motricité (pourcentage de diminution des scores) ([5]; 100 mg/kg): 50% | Propriétés déficitaires motrices sur la motricité (pourcentage de diminution des scores) ([5]; 150 mg/kg): 100% | Propriétés déficitaires motrices sur la motricité (pourcentage de diminution des scores) ([5]; 200 mg/kg): 100% | ED50 at 1 h [6]: 120 mg/kg | Elévation du seuil myoclonique ([7]; 50 mg/kg): 61,7% | Dose moyenne de pentétrazol ([7]; 50 mg/kg): 37,2 mg/kg | Elévation du seuil myoclonique ([7]; 100 mg/kg): 113% | Dose moyenne de pentétrazol ([7]; 100 mg/kg): 49,2 mg/kg | Quantité de pentétrazol nécessaire à l'apparition des myoclonies palpébrales [7, 9]: 40,78 mg/kg and 42,58 mg/kg and 51,43 mg/kg and 33,33 mg/kg and 43,68 mg/kg and 32,44 mg/kg and 22,22 mg/kg and 40 mg/kg and 45,15 mg/kg and 20 mg/kg | Temps d'infusion veineuse nécessaire à l'apparition des myoclonies palpébrales [7, 9]: 26 minutes et secondes and 28 minutes et secondes (2×) and 36 minutes et secondes and 21,15 minutes et secondes and 31,40 minutes et secondes and 22,20 minutes et secondes and 15 minutes et secondes and 28,40 minutes et secondes and 16 minutes et secondes | Quantité de pentétrazol nécessaire à l'apparition des myoclonies palpébrales [7, 10]: 51,85 mg/kg and 51,81 mg/kg and 46,28 mg/kg and 64 mg/kg and > 68,44 mg/kg and 45,15 mg/kg and 56,67 mg/kg and 33,84 mg/kg and 37,71 mg/kg and 36,41 mg/kg | Temps d'infusion veineuse nécessaire à l'apparition des myoclonies palpébrales [7, 10]: 35 minutes et secondes and 37 minutes et secondes and 28 minutes et secondes and 32 minutes et secondes and > 45 minutes et secondes and 28,40 minutes et secondes and 34 minutes et secondes and 33 minutes et secondes (2×) and 35,30 minutes et secondes | activité vis-à-vis des myoclonies palpébrales du lapin par rapport au valproate de sodium ([7]; relative activity, lapin): dix fois plus actif | activité vis-à-vis des myoclonies palpébrales du lapin par rapport à la phénacétamide ([7]; relative activity, lapin): deux fois plus actif
